BindingDB's records for doi:10.1007/s00044-013-0771-5 (n/a, 2013)

Molecular target: Prostaglandin G/H synthase 1/2 (Homo sapiens, UniProt P23219+P35354)
Experiment: Inhibition of COX (unknown origin)

Sequence of Prostaglandin G/H synthase 1/2 (P35354 whole entry): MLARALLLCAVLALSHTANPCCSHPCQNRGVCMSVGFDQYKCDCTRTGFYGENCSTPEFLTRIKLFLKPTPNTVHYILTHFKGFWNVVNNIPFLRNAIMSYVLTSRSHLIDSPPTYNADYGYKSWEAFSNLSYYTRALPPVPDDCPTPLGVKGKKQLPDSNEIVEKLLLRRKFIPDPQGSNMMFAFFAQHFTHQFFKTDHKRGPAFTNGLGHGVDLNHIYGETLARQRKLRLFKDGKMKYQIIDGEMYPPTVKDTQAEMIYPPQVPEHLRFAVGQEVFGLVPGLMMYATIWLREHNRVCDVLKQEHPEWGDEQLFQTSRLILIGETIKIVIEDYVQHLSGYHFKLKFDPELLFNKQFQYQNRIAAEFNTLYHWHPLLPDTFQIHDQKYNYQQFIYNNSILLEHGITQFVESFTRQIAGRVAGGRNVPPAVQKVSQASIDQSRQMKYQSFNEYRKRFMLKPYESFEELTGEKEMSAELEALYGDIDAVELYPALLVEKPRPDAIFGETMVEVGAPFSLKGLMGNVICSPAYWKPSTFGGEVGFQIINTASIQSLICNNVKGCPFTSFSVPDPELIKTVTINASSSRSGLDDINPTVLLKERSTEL
Sequence of Prostaglandin G/H synthase 1/2 (P23219 whole entry): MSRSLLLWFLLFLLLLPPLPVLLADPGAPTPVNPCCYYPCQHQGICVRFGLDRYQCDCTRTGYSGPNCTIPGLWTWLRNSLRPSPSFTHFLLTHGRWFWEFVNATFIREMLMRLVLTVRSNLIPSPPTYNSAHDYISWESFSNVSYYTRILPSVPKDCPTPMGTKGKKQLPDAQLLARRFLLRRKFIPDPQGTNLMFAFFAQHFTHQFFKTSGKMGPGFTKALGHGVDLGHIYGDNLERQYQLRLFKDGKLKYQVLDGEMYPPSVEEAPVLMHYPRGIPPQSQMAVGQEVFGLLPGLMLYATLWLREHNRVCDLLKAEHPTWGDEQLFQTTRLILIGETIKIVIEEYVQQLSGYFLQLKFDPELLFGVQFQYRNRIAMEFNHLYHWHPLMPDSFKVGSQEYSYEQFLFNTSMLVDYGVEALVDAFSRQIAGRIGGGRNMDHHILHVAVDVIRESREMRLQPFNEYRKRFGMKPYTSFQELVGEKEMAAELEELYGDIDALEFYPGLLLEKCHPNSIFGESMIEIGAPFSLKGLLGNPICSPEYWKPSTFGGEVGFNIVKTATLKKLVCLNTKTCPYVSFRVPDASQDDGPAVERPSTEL

IC50 | SMILES
912 µM | O=C(O)Cc1cc(O)ccc1Nc1c(Cl)cc(O)cc1Cl [CHEBI:223401]
447 µM | O=C(O)Cc1cc(O)ccc1Nc1c(Cl)cccc1Cl [CHEBI:59612]
